PubChem BioAssay (NCI)
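96-well plates; 48 h exposure; 5 concentrations. Endpoints by linear interpolation between flanking doses. Not reached: highest tested concentration assigned. The concentration for full growth arrest is given as TGI.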

Columns and labels:
Test in all cases: inhibition of tumour cell growth, NCI panel, 48 h
SK-OV-3 ovarian = test system: SK-OV-3 ovarian
SW-620 colon = test system: SW-620 colon
RPMI-8226 leukemia = test system: RPMI-8226 leukemia
HOP-92 NSCLC = test system: HOP-92 NSCLC
HOP-62 NSCLC = test system: HOP-62 NSCLC
A549 NSCLC = test system: A549 NSCLC
OVCAR-5 ovarian = test system: OVCAR-5 ovarian
SF-268 CNS = test system: SF-268 CNS
SR leukemia = test system: SR leukemia
MDA-MB-435 = test system: MDA-MB-435

`NC(CCCCNCc1ccccc1O)C(=O)O` (configuration not stated) was tested, and the TGI (SK-OV-3 ovarian) was greater than 100 µM, the TGI (SW-620 colon) was greater than 100 µM and the TGI (RPMI-8226 leukemia) was greater than 100 µM. It also gave a TGI (HOP-92 NSCLC) greater than 100 µM, a TGI (HOP-62 NSCLC) greater than 100 µM and a TGI (A549 NSCLC) greater than 100 µM. It also gave a TGI (OVCAR-5 ovarian) greater than 100 µM and a TGI (SF-268 CNS) greater than 100 µM.
`CNC(=O)N1N[C@H](c2ccccc2)[C@@H]1c1ccccc1` gave a TGI (SR leukemia) of 58.4 µM, a TGI (SK-OV-3 ovarian) of 91.2 µM and a TGI (SW-620 colon) of 77.7 µM. The TGI (HOP-92 NSCLC) was 91.2 µM, the TGI (HOP-62 NSCLC) was greater than 100 µM and the TGI (A549 NSCLC) was greater than 100 µM. For the same compound, the TGI (OVCAR-5 ovarian) was greater than 100 µM.
With `CSc1ccc2c(cc1=O)C(NC(=O)c1ccc(C#N)cc1)CCc1cc(O)c(O)c(O)c1-2` (configuration not stated) the TGI (SR leukemia) was 48.7 µM, the TGI (SK-OV-3 ovarian) was 63.7 µM and the TGI (SW-620 colon) was 37.7 µM. It also gave a TGI (HOP-62 NSCLC) greater than 100 µM, a TGI (A549 NSCLC) greater than 100 µM and a TGI (OVCAR-5 ovarian) greater than 100 µM. For the same compound, the TGI (SF-268 CNS) was greater than 100 µM.
`C[C@@]1(OC(=O)c2cc([N+](=O)[O-])cc([N+](=O)[O-])c2)C[C@@H]2CCCC[C@@H]21` showed a TGI (SR leukemia) greater than 100 µM, a TGI (SK-OV-3 ovarian) greater than 100 µM and a TGI (SW-620 colon) greater than 100 µM. It also gave a TGI (RPMI-8226 leukemia) greater than 100 µM, a TGI (HOP-62 NSCLC) greater than 100 µM and a TGI (A549 NSCLC) greater than 100 µM. The TGI (OVCAR-5 ovarian) was greater than 100 µM and the TGI (SF-268 CNS) was greater than 100 µM.
`CCc1ccccc1NC(=O)CC1NC(=O)CS1` (configuration not stated) was tested, and the TGI (SK-OV-3 ovarian) was greater than 100 µM, the TGI (SW-620 colon) was greater than 100 µM and the TGI (RPMI-8226 leukemia) was greater than 100 µM. The TGI (HOP-92 NSCLC) was greater than 100 µM, the TGI (HOP-62 NSCLC) was greater than 100 µM and the TGI (A549 NSCLC) was greater than 100 µM. The TGI (OVCAR-5 ovarian) was greater than 100 µM and the TGI (SF-268 CNS) was greater than 100 µM.
With `CSc1c(C#N)c(S)n(-c2ccc(Cl)cc2)c(=O)c1C#N` the TGI (SR leukemia) was greater than 100 µM, the TGI (SK-OV-3 ovarian) was greater than 100 µM and the TGI (SW-620 colon) was greater than 100 µM. For the same compound, the TGI (MDA-MB-435) was greater than 100 µM, the TGI (RPMI-8226 leukemia) was greater than 100 µM and the TGI (A549 NSCLC) was greater than 100 µM. It also gave a TGI (OVCAR-5 ovarian) greater than 100 µM and a TGI (SF-268 CNS) greater than 100 µM.
In the case of `Nc1nc2ncn(CC(O)CO)c2c(=O)[nH]1` (configuration not stated), the TGI (SR leukemia) is reported as greater than 100 µM, the TGI (SK-OV-3 ovarian) is reported as greater than 100 µM and the TGI (SW-620 colon) is reported as greater than 100 µM. For the same compound, the TGI (RPMI-8226 leukemia) was greater than 100 µM, the TGI (HOP-92 NSCLC) was greater than 100 µM and the TGI (HOP-62 NSCLC) was greater than 100 µM. For the same compound, the TGI (A549 NSCLC) was greater than 100 µM, the TGI (OVCAR-5 ovarian) was greater than 100 µM and the TGI (SF-268 CNS) was greater than 100 µM.
Work on `O=c1ccn(/C=C/C(O)C(O)CO)c(=O)[nH]1` (configuration not stated) yielded a TGI (SK-OV-3 ovarian) greater than 100 µM, a TGI (SW-620 colon) greater than 100 µM and a TGI (RPMI-8226 leukemia) greater than 100 µM. For the same compound, the TGI (HOP-62 NSCLC) was greater than 100 µM, the TGI (A549 NSCLC) was greater than 100 µM and the TGI (OVCAR-5 ovarian) was greater than 100 µM. The TGI (SF-268 CNS) was greater than 100 µM.
For `O=C(N/N=C(\C1=Nc2ccc(Cl)cc2NC1O)C(O)/C=C/c1ccccc1)c1ccncc1` (configuration not stated), the TGI (SR leukemia) was greater than 100 µM, the TGI (SK-OV-3 ovarian) was greater than 100 µM and the TGI (SW-620 colon) was greater than 100 µM. It also gave a TGI (RPMI-8226 leukemia) greater than 100 µM, a TGI (HOP-92 NSCLC) greater than 100 µM and a TGI (HOP-62 NSCLC) greater than 100 µM. It also gave a TGI (A549 NSCLC) greater than 100 µM, a TGI (OVCAR-5 ovarian) greater than 100 µM and a TGI (SF-268 CNS) greater than 100 µM.
For `CNC(=O)CCCNC(=O)CCCC(=O)OC`, the TGI (SK-OV-3 ovarian) was greater than 100 µM, the TGI (SW-620 colon) was greater than 100 µM and the TGI (MDA-MB-435) was greater than 100 µM. For the same compound, the TGI (RPMI-8226 leukemia) was greater than 100 µM, the TGI (HOP-92 NSCLC) was greater than 100 µM and the TGI (HOP-62 NSCLC) was greater than 100 µM. For the same compound, the TGI (A549 NSCLC) was greater than 100 µM, the TGI (OVCAR-5 ovarian) was greater than 100 µM and the TGI (SF-268 CNS) was greater than 100 µM.
`Nc1[nH]c(=O)[nH]c(=O)c1Cc1cccc(Cl)c1` showed a TGI (SK-OV-3 ovarian) greater than 100 µM, a TGI (SW-620 colon) greater than 100 µM and a TGI (MDA-MB-435) greater than 100 µM. The TGI (RPMI-8226 leukemia) was greater than 100 µM, the TGI (HOP-92 NSCLC) was greater than 100 µM and the TGI (HOP-62 NSCLC) was greater than 100 µM. For the same compound, the TGI (A549 NSCLC) was greater than 100 µM, the TGI (OVCAR-5 ovarian) was greater than 100 µM and the TGI (SF-268 CNS) was greater than 100 µM.
`COC(=O)CCC(NC(=S)N/N=C(\C)c1cnccn1)C(=O)OC` (configuration not stated) gave a TGI (SR leukemia) greater than 100 µM, a TGI (SK-OV-3 ovarian) greater than 100 µM and a TGI (SW-620 colon) greater than 100 µM. For the same compound, the TGI (RPMI-8226 leukemia) was greater than 100 µM, the TGI (HOP-92 NSCLC) was greater than 100 µM and the TGI (HOP-62 NSCLC) was greater than 100 µM. It also gave a TGI (A549 NSCLC) greater than 100 µM, a TGI (OVCAR-5 ovarian) of 79.7 µM and a TGI (SF-268 CNS) greater than 100 µM.
For `Oc1cccnc1/C=N/OCc1ccccc1`, the TGI (SK-OV-3 ovarian) was greater than 100 µM, the TGI (SW-620 colon) was greater than 100 µM and the TGI (RPMI-8226 leukemia) was greater than 100 µM. It also gave a TGI (HOP-62 NSCLC) greater than 100 µM, a TGI (A549 NSCLC) greater than 100 µM and a TGI (OVCAR-5 ovarian) greater than 100 µM. For the same compound, the TGI (SF-268 CNS) was greater than 100 µM.
Work on `CC(=O)NCCCCN(CCCNC(C)=O)C(=O)OCc1ccccc1` yielded a TGI (SK-OV-3 ovarian) greater than 100 µM, a TGI (SW-620 colon) greater than 100 µM and a TGI (MDA-MB-435) greater than 100 µM. For the same compound, the TGI (RPMI-8226 leukemia) was greater than 100 µM, the TGI (HOP-92 NSCLC) was greater than 100 µM and the TGI (HOP-62 NSCLC) was greater than 100 µM. For the same compound, the TGI (A549 NSCLC) was greater than 100 µM, the TGI (OVCAR-5 ovarian) was greater than 100 µM and the TGI (SF-268 CNS) was greater than 100 µM.
`Cc1nc(N(C(C)C)C(C)C)c(C(C)C)o1` gave a TGI (SK-OV-3 ovarian) greater than 100 µM, a TGI (SW-620 colon) greater than 100 µM and a TGI (MDA-MB-435) greater than 100 µM. The TGI (HOP-92 NSCLC) was greater than 100 µM, the TGI (HOP-62 NSCLC) was greater than 100 µM and the TGI (A549 NSCLC) was greater than 100 µM. The TGI (OVCAR-5 ovarian) was greater than 100 µM and the TGI (SF-268 CNS) was greater than 100 µM.
With `COCCOCOC(C)(C)[C@H](CCO)O[Si](c1ccccc1)(c1ccccc1)C(C)(C)C` the TGI (SR leukemia) was 16.3 µM, the TGI (SK-OV-3 ovarian) was 26.5 µM and the TGI (SW-620 colon) was 25.2 µM. The TGI (RPMI-8226 leukemia) was 35.5 µM, the TGI (HOP-92 NSCLC) was 23.6 µM and the TGI (A549 NSCLC) was 22.1 µM. It also gave a TGI (OVCAR-5 ovarian) of 27.5 µM and a TGI (SF-268 CNS) of 22.5 µM.
Work on `Cc1ccc(S(=O)(=O)NC(=O)Nc2cc(Cl)c(S(N)(=O)=O)cc2S(N)(=O)=O)cc1` yielded a TGI (SK-OV-3 ovarian) greater than 100 µM, a TGI (SW-620 colon) greater than 100 µM and a TGI (MDA-MB-435) greater than 100 µM. It also gave a TGI (RPMI-8226 leukemia) greater than 100 µM, a TGI (HOP-92 NSCLC) greater than 100 µM and a TGI (HOP-62 NSCLC) greater than 100 µM. For the same compound, the TGI (A549 NSCLC) was greater than 100 µM, the TGI (OVCAR-5 ovarian) was greater than 100 µM and the TGI (SF-268 CNS) was greater than 100 µM.
With `CS(=O)(=O)C1(Br)S(=O)(=O)OCCOS1(=O)=O` the TGI (SR leukemia) was greater than 100 µM, the TGI (SK-OV-3 ovarian) was greater than 100 µM and the TGI (SW-620 colon) was greater than 100 µM. The TGI (RPMI-8226 leukemia) was greater than 100 µM, the TGI (HOP-92 NSCLC) was greater than 100 µM and the TGI (HOP-62 NSCLC) was greater than 100 µM. The TGI (A549 NSCLC) was greater than 100 µM, the TGI (OVCAR-5 ovarian) was greater than 100 µM and the TGI (SF-268 CNS) was greater than 100 µM.
`O=C(Nc1nc2ncn(CCO)c2c(=O)[nH]1)c1ccccc1` showed a TGI (SR leukemia) greater than 100 µM, a TGI (SK-OV-3 ovarian) greater than 100 µM and a TGI (SW-620 colon) greater than 100 µM. It also gave a TGI (RPMI-8226 leukemia) greater than 100 µM, a TGI (HOP-92 NSCLC) greater than 100 µM and a TGI (HOP-62 NSCLC) greater than 100 µM. It also gave a TGI (A549 NSCLC) greater than 100 µM, a TGI (OVCAR-5 ovarian) greater than 100 µM and a TGI (SF-268 CNS) greater than 100 µM.
